Results published in patent US20240156805A1, “COMPOUND FOR INHIBITING NONSENSE-MEDIATED MRNA DECAY” (RIBOTECH CO., LTD., priority 2021, published 2024).

How the values were obtained:
[1] = system: β-6bs mRNA (reporter mRNA); test: Tethering of MS2-Upf1, MS2-Upf2, MS2-Upf3 to 3' UTR of reporter mRNA in HeLa cell line, real-time PCR; format: cell-based; settings: 5 μM for 6 hours or 12 hours; FIGS. 8 and 9
Method: An NMD-based search system capable of artificially reducing the amount of reporter mRNA was constructed, after artificially tethering proteins Upf1, Upf2, and Upf3X acting in each step of NMD to 3′ UTR of reporter mRNA (FIG. 7). Using this method, it was attempted to verify which step of NMD the three types of compounds acted on.
After treating the cell line with each compound at 5 μM for 6 hours or 12 hours, a cell extract was obtained. Thereafter, the relative amount of reporter mRNA was measured through real-time PCR.

UPF1 and UPF2 = target: T1, UPF1 and UPF2 (Homo sapiens, UniProt Q92900+Q9HAU5); test: Effect on binding between UPF1 and UPF2, FLAG-UPF1 immunoprecipitation and western blotting; format: cell-based; settings: 5 μM for 1 hour; FLAG immunoprecipitation; FIG. 6
T1 construct: expressed in transfected cells
T1 sequence (Q92900 1-1129): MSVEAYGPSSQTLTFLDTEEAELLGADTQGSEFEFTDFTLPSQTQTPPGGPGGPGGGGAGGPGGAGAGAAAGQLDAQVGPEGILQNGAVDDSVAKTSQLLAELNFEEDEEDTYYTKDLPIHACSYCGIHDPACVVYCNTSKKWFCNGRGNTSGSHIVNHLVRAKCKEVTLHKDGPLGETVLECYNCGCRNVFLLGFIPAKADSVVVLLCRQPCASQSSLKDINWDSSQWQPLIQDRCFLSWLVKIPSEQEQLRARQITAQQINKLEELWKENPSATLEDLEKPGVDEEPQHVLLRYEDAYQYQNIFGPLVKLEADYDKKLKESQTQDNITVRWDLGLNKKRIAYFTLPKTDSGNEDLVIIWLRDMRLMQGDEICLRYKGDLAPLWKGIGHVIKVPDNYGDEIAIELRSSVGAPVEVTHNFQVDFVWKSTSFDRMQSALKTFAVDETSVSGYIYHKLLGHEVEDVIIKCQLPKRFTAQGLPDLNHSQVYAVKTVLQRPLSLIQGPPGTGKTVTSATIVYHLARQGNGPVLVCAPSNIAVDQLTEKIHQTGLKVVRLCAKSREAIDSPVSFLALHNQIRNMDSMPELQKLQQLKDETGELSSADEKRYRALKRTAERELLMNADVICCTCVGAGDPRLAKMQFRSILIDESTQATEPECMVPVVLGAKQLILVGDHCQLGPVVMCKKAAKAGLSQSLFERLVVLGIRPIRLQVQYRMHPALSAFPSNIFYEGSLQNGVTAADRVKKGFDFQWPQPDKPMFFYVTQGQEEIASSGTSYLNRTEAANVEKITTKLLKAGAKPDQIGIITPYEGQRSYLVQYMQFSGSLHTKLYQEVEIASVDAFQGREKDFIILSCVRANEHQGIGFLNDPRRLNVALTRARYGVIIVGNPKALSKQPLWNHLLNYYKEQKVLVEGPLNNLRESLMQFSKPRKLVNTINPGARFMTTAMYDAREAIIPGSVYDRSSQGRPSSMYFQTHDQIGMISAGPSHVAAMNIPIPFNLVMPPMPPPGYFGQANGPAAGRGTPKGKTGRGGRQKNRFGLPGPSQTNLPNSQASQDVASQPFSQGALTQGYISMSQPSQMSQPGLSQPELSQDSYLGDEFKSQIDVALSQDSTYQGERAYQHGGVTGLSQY
T1 sequence (Q9HAU5 1-1272): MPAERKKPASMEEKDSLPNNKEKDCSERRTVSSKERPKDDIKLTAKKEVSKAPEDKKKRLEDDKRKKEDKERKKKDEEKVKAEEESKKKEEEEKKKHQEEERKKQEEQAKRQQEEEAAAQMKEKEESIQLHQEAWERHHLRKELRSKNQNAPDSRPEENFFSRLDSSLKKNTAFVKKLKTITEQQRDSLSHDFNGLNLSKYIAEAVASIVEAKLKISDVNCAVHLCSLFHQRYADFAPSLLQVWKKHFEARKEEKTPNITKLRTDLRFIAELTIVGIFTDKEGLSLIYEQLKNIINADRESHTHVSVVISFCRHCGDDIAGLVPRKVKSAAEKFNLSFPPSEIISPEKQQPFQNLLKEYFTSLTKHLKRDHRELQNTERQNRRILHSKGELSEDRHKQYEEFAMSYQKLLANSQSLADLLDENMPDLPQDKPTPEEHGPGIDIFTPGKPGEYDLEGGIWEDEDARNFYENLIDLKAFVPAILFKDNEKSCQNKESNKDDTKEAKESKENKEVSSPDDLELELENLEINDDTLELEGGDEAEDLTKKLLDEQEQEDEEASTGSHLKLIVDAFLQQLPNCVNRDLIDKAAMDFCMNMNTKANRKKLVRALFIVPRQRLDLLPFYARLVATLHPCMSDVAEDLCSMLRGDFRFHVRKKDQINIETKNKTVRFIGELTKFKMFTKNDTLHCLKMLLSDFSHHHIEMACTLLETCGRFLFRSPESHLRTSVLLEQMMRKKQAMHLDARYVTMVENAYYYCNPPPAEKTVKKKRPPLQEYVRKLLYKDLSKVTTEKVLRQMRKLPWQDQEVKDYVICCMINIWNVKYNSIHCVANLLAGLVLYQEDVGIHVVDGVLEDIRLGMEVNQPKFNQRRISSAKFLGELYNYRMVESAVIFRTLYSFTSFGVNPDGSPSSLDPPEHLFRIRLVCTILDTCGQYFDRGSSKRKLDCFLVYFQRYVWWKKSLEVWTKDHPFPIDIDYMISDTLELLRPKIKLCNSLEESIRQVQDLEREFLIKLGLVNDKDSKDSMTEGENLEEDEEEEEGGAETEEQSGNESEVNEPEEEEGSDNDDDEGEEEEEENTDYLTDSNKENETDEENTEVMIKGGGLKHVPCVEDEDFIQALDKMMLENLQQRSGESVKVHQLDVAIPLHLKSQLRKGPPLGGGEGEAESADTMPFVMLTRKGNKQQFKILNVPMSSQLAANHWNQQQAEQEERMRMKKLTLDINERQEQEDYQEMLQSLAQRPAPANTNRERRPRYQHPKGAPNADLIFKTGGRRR
Method: In the cell line, DNA expressing FLAG-UPF1 was transiently overexpressed.
After treating the cell line with each compound at 5 μM for 1 hour, a cell extract was obtained. Immunoprecipitation was performed on the cell extract obtained using a FLAG antibody.
Proteins before and after immunoprecipitation were analyzed by western blotting.

[2] = system: HeLa cell line constitutively expressing the NMD-target mRNA (RLuc-beta-globin PTC); test: NMD reporter HeLa cell lines (NMD20, NMD4, NMD5), RLuc/FLuc dual luciferase assay; format: cell-based; settings: 5 μM for 12 hours, FIG. 4
Method: In Example 1, a beta-globin normal gene or the gene including a premature termination codon (PTC) found in genetic diseases was inserted into the downstream of a chemiluminescence gene, Renilla luciferase (RLuc). Normal gene-inserted mRNA was not targeted by NMD, whereas when a gene having PTC was inserted, the mRNA became a NMD target, and as a result, mRNA was quickly broken down and the expression level of RLuc was reduced. […]
First, each of the prepared cell lines was treated with caffeine, which was known as a non-specific NMD inhibitor, to confirm the degree of RLuc activity to FLuc activity. […] Then, the expression levels of RLuc and FLuc proteins were measured by dual luciferase assay.
Additionally, it was attempted to determine whether the prepared HeLa cell line was suitable for performing high-throughput screening (HTS). Experiments were performed by optimizing the conditions such as the number of cells, the amounts of used reagent and buffer, and the like in a 384-well format to be suitable for HTS (FIG. 3), and NMD efficiency was measured using Wortmannin, which was a non-specific NMD inhibitor, as a control substance. […]
The NMD inhibitory effect of Compounds 1 to 3 was confirmed using the HeLa cell line prepared in Example 1. […] Then, the amounts of RNA and protein were quantified respectively through real-time PCR and dual luciferase assay methods. […]

UPF1 = test: Effect on phosphorylation of UPF1, western blotting; format: cell-based; settings: 5 μM for 12 hours, FIG. 5
Method: Phosphorylation of UPFI was known to be one of the most important factors in NMD. In Example 3.1, the effect of the three types of compounds of the present invention on phosphorylation of UPFI was examined. The cells were treated with each compound at 5 μM for 12 hours, and then total proteins were purified. Then, western blotting was performed using each antibody capable of recognizing Upfl or Upfl phosphorylated at a specific site.

dystrophin protein = test: Dystrophin protein in DMD patient-derived cell line, Western blotting; format: cell-based, human; settings: 5 μM for 12 hours, FIG. 11
[3] = system: HeLa cell line constitutively expressing the NMD-target mRNA (RLuc-beta-globin PTC); test: NMD reporter HeLa cell line, RLuc mRNA by real-time PCR; format: cell-based; settings: 5 μM for 12 hours, FIG. 4
Source text: In Example 1, a beta-globin normal gene or the gene including a premature termination codon (PTC) found in genetic diseases was inserted into the downstream of a chemiluminescence gene, Renilla luciferase (RLuc). Normal gene-inserted mRNA was not targeted by NMD, whereas when a gene having PTC was inserted, the mRNA became a NMD target, and as a result, mRNA was quickly broken down and the expression level of RLuc was reduced.
Accordingly, a HeLa cell line constitutively expressing the NMD-target mRNA was prepared, and simultaneously, the cell line was designed to constitutively express a firefly luciferase (FLuc) gene, which was not a target of NMD, and a total of three cell lines NMD20, NMD4, and NMD5 with the same composition were obtained. In order to confirm whether the HeLa cell line prepared above was suitable for measuring NMD efficiency, the following two experiments were performed.
The NMD inhibitory effect of Compounds 1 to 3 was confirmed using the HeLa cell line prepared in Example 1. After treating the cells with Compounds 1 to 3 at 5 μM for 12 hours, respectively, total RNA and protein were purified from the cells, respectively. Then, the amounts of RNA and protein were quantified respectively through real-time PCR and dual luciferase assay methods. The results were illustrated in FIG. 4.

SMILES | NMD step targeted (relative amount of reporter mRNA) [1] | UPF1-UPF2 binding (UPF1 and UPF2) | protein translation of RLuc [2] | phosphorylation of UPF1 (UPF1) | amount of dystrophin protein expressed in cells (dystrophin protein) | amount of RLuc mRNA [3]
COc1ncc(-c2ccc3nccc(-c4ccnnc4)c3c2)cc1NS(=O)(=O)c1ccc(F)cc1F [Compound 1, 2,4-Difluoro-N-{2-(methyloxy)-5-[4-(4-pyridazinyl)-6-quinolinyl]-3-pyridinyl} benzenesulfonamide] | targeted a UPF1-UPF2 step | significantly inhibited | increased | did not significantly affect | increased | –
Cn1c(=O)n(-c2ccc(C(C)(C)C#N)cc2)c2c3cc(-c4cnc5ccccc5c4)ccc3ncc21 [Compound 2, 2-methyl-2-{4-[3-methyl-2-oxo-8-(quinolin-3-yl)-2,3-dihydro-1H-imidazo[4,5-c]quinolin-1-yl]phenyl} propanenitrile] | did not target the UPF1-UPF2 and UPF2-UPF3 steps | did not significantly affect | – | significantly inhibited | – | significantly increased
COc1cc2ncnc(-n3nc(-c4ccccn4)nc3N)c2cc1OC [Compound 3, 1-(6,7-Dimethoxy-4-quinazolinyl)-3-(2-pyridinyl)-1H-1,2,4-Triazol-5-amine] | did not target the UPF1-UPF2 and UPF2-UPF3 steps | did not significantly affect | – | did not significantly affect | – | significantly increased
